Laboratory results from patent US20260007599A1, “TICAGRELOR IV FORMULATIONS FOR USE IN THE TREATMENT OF GRAM-POSITIVE BACTEREMIA” (Hyloris Developments SA, priority 2023, published 2026).

Key:
[1] = Storage stability of ticagrelor 6 mg/ml in HPβCD 40% w/w, phosphate buffer pH 7.5, 40° C./75% RH; assay type: physicochemical
Description: A Gradient HPLC method was used to analyze impurities in formulations using a YMC-Pack Pro C18 column (100×4.6 mm, S-3 μm 12 nm). Good separation was obtained for all the impurities. Following the experiment described in example 2, a storage stability study at pH 7.5 was conducted First HPβCD was dissolved in a phosphate buffer solution of pH 7.5 prepared separately in water. […] The solution was filtered through a 0.22 micrometer filter and filled in USP Type I amber colored glass vials. The vials were stoppered and stored. All precautions were taken during manufacturing, such as N2 purging and avoiding direct exposure to light.

[2] = Dilution of a concentrated ticagrelor vial (8 ml, 65 mg ticagrelor, about 3 g HPβCD); assay type: physicochemical
[3] = Storage stability of Example 14 aqueous ticagrelor solutions; assay type: physicochemical; settings: 5-15 mg/ml ticagrelor, 20-40% w/w HPβCD; 40° C. and 75% Relative Humidity
Description: Aqueous ticagrelor solutions for intravenous administration were prepared with the following composition: • 5-15 mg/ml Ticagrelor • 20-40% w/w HPβCD • Q·S to 1 ml Acetate or Phosphate Buffer pH 4.5 to 6.5 • pH solution: 6-8 • Osmolality solution: 350-900 mOsm/kg
Packaged in a glass vial, containing 5-15 ml aqueous ticagrelor solution.
Storage stability: at least 3 months at 40° C. and 75% Relative Humidity

[4] = tested on: Methicillin resistant Staphylococcus aureus (MRSA); settings: ex-vivo; cited from earlier work
[5] = tested on: methicillin-resistant Staphylococcus epidermis (MRSE); settings: ex-vivo; cited from earlier work
[6] = phosphate buffered solution at pH 7.4; after 1 month under normal laboratory conditions of light and temperature; cited from earlier work

SMILES: CCCSc1nc(N[C@@H]2C[C@H]2c2ccc(F)c(F)c2)c2nnn([C@@H]3C[C@H](OCCO)[C@@H](O)[C@H]3O)c2n1 [ticagrelor, (1S,2S,3R,5S)-3-{7-[(1R,2S)-2-(3,4-difluorophenyl)cyclopropylamino]5-(propylthio)-3H-(1,2,3)triazolo (4,5-D)pyrimidin-3-yl}-5-(2 hydroxyethoxy) cyclopentane-1,2-diol]
- Acetal impurity ([1]; T = 0, 40° C./75% RH): 0.05%
- Amine impurity ([1]; T = 0, 40° C./75% RH): 0.04%
- Assay ticagrelor ([1]; T = 0, 40° C./75% RH): 104.27%
- Regiomer impurity ([1]; T = 0, 40° C./75% RH): 0.00%
- Sum impurities >0.05 ([1]; T = 0, 40° C./75% RH): 0.11%
- Total impurities ([1]; T = 0, 40° C./75% RH): 0.31%
- Triol impurity ([1]; T = 0, 40° C./75% RH): 0.04%
- Acetal impurity ([1]; T = 4 weeks, 40° C./75% RH): 0.05%
- Amine impurity ([1]; T = 4 weeks, 40° C./75% RH): 0.05%
- Assay ticagrelor ([1]; T = 4 weeks, 40° C./75% RH): 104.47%
- Regiomer impurity ([1]; T = 4 weeks, 40° C./75% RH): 0.01%
- Sum impurities >0.05 ([1]; T = 4 weeks, 40° C./75% RH): 0.14%
- Total impurities ([1]; T = 4 weeks, 40° C./75% RH): 0.32%
- Triol impurity ([1]; T = 4 weeks, 40° C./75% RH): 0.05%
- Acetal impurity ([1]; T = 8 weeks, 40° C./75% RH): 0.05%
- Amine impurity ([1]; T = 8 weeks, 40° C./75% RH): 0.05%
- Assay ticagrelor ([1]; T = 8 weeks, 40° C./75% RH): 102.59%
- Regiomer impurity ([1]; T = 8 weeks, 40° C./75% RH): 0.04%
- Sum impurities >0.05 ([1]; T = 8 weeks, 40° C./75% RH): 0.15%
- Total impurities ([1]; T = 8 weeks, 40° C./75% RH): 0.29%
- Triol impurity ([1]; T = 8 weeks, 40° C./75% RH): 0.05%
- Acetal impurity ([1]; T = 12 weeks, 40° C./75% RH): 0.05%
- Amine impurity ([1]; T = 12 weeks, 40° C./75% RH): 0.05%
- Assay ticagrelor ([1]; T = 12 weeks, 40° C./75% RH): 102.31%
- Regiomer impurity ([1]; T = 12 weeks, 40° C./75% RH): 0.08%
- Sum impurities >0.05 ([1]; T = 12 weeks, 40° C./75% RH): 0.23%
- Total impurities ([1]; T = 12 weeks, 40° C./75% RH): 0.41%
- Triol impurity ([1]; T = 12 weeks, 40° C./75% RH): 0.04%
- Acetal impurity ([1]; T = 24 Weeks, 40° C./75% RH): 0.05%
- Amine impurity ([1]; T = 24 Weeks, 40° C./75% RH): 0.07%
- Assay ticagrelor ([1]; T = 24 Weeks, 40° C./75% RH): 104.39%
- Regiomer impurity ([1]; T = 24 Weeks, 40° C./75% RH): 0.16%
- Sum impurities >0.05 ([1]; T = 24 Weeks, 40° C./75% RH): 0.33%
- Total impurities ([1]; T = 24 Weeks, 40° C./75% RH): 0.35%
- Triol impurity ([1]; T = 24 Weeks, 40° C./75% RH): 0.05%
- storage stability (conclusion) ([1]; accelerated storage conditions of 40° C. and 75% Relative Humidity): good storage stability
- clear solution on dilution ([2]; 0,9 w/v % NaCl solution as diluent): not possible
- appearance after dilution ([2]; diluted with 25 ml 5 w/v % dextrose, final volume 33 ml): clear solution
- Storage stability [3]: at least 3 months
- minimal bactericidal concentration [4]: 20 microgram/ml
- minimal bactericidal concentration [5]: 30 microgram/ml
- ticagrelor concentrations in solution [6]: declined
